Laboratory results published in patent US20220402900A1, “1,2,4-OXADIAZOL-5-ONE DERIVATIVES FOR THE TREATMENT OF CANCER” (Basilea Pharmaceutica International AG, priority 2019, published 2022).

How the values were obtained:
[1] = tested on: TEAD reporter gene activity; test: TEAD reporter gene assay (MCF7 TEAD reporter cell line); format: cell-based; settings: Homo sapiens; TEAD luciferase reporter in MCF7 cells, 24 hours; read-out: IC50 TEAD RGA (converted)
Source text: A TEAD reporter cell line was purchased from BPS Bioscience (cat. no. 60618). It contains the firefly luciferase gene under control of TEAD responsive elements stably integrated into the human breast cancer MCF7 cells. In proliferating cells, a basal level of unphosphorylated YAP/TAZ resides in the nucleus and drives the TEAD-dependent expression of the luciferase reporter. The cells were cultivated as recommended by the supplier. Inhibition of TEAD reporter gene activity by experimental compounds was measured using white, clear-bottom, 96 well cell culture plates (Greiner Bio-One, cat. no. 655098). The cells were seeded at a density of 20,000 cells per well in 100 μL growth medium and the plates were incubated overnight at 37° C. with 5% CO2 prior to treatment. Experimental compounds were serially diluted in DMSO to 200× the desired final concentrations. 0.5 μL aliquots of DMSO or the test samples were then mixed into the wells and the cells were further incubated for 24 hours. Luminescence was then measured on a Synergy 4 reader (BioTek) using the ONE-Glo Luciferase Assay System (Promega, cat. no. E6120) according to the manufacturer's instructions. Relative inhibition values were calculated by normalizing the raw data using DMSO-treated cells (0% inhibition) and wells devoid of cells (100% inhibition). IC50 values were calculated by fitting concentration-response data to a sigmoidal 4-parameter logistic model.

[2] = target: T1, human TEAD2 (amino acids 217-447) (Homo sapiens, UniProt Q15562); test: Thermal shift assay (TSA); format: binding; settings: 3 μM recombinant TEAD2, compound 7 μM, shift vs DMSO control
T1 construct: human TEAD2 (amino acids 217-447); His-tag (N); purchased Proteros biostructures PR-0365; host or cells: E. coli
T1 sequence (Q15562 217-447): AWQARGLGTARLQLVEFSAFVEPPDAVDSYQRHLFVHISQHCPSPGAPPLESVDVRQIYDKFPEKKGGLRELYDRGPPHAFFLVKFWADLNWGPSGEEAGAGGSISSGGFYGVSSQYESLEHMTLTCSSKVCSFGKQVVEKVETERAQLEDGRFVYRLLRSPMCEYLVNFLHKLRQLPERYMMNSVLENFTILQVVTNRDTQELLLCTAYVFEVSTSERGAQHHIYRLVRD
Method: The thermal shift assay (TSA) was utilized to characterize target engagement in vitro based on ligand-dependent thermal stabilization of the protein. N-terminally His-tagged human TEAD2 (amino acids 217-447) expressed and purified from E. coli was purchased from Proteros biostructures (cat no. PR-0365). The melting reactions were performed in white, 96 well qPCR plates (Roche Diagnostics, cat. no. 04 729 692 001) in 20 mM HEPES pH 7, 100 mM NaCl in the presence of 4×SYPRO orange (Sigma, cat. no. S5692). Each well contained 3 μM recombinant TEAD2 and either DMSO (control) or experimental compounds at a final concentration of 7 μM. The total volume was 20 μL and the final DMSO concentration was 1%. The plate was sealed and analyzed in a LightCycler 480 II (Roche Diagnostics) by continuously reading the fluorescence using the 465-580 nm filter set while heating from 25° C. to 95° C. using a linear gradient of 1° C./min. Melting temperatures were determined by numerical differentiation using the LightCycler Thermal Shift Analysis software (Roche Diagnostics). The shifts in melting temperature caused by experimental compounds compared to the control are expressed as ΔTm (Table 2).

Row | IC50 [1] [nM] | ΔTm at 7 µM [2] [°C] | Compound
1 | 102 | 2.1 | COc1cc(C(F)(F)F)ccc1Nc1nccnc1-c1noc(=O)[nH]1 [Example 21, 3-[3-[2-methoxy-4-(trifluoromethyl)anilino]pyrazin-2-yl]-4H-1,2,4-oxadiazol-5-one]
2 | 3830 | 2.5 | CC(=O)Nc1cnc(Nc2ccc(C(F)(F)F)cc2)c(-c2noc(=O)[nH]2)n1 [Example 35, N-[6-(5-oxo-4H-1,2,4-oxadiazol-3-yl)-5-[4-(trifluoromethyl)anilino]pyrazin-2-yl]acetamide]
3 | 85 | 2 | Nc1cnc(Nc2ccc(C(F)(F)F)cc2)c(-c2noc(=O)[nH]2)n1 [Example 4, 3-[6-amino-3-[4-(trifluoromethyl)anilino]pyrazin-2-yl]-4H-1,2,4-oxadiazol-5-one]
4 | 135 | 5.1 | O=c1[nH]c(-c2c(OCCO)ccnc2Nc2ccc(C(F)(F)F)cc2)no1 [Example 51, 3-[4-(2-hydroxyethoxy)-2-[4-(trifluoromethyl)anilino]-3-pyridyl]-4H-1,2,4-oxadiazol-5-one]
5 | 388 | 4.1 | CS(=O)(=O)NCCOc1ccnc(Nc2ccc(C(F)(F)F)cc2)c1-c1noc(=O)[nH]1 [Example 57, N-[2-[[3-(5-oxo-4H-1,2,4-oxadiazol-3-yl)-2-[4-(trifluoromethyl)anilino]-4-pyridyl]oxy]ethyl]methanesulfonamide]
6 | 70 | 6.1 | COc1cc(Nc2nccnc2-c2noc(=O)[nH]2)ccc1C(F)(F)F [Example 22, 3-[3-[3-methoxy-4-(trifluoromethyl)anilino]pyrazin-2-yl]-4H-1,2,4-oxadiazol-5-one]
7 | 64 | 1.6 | O=c1[nH]c(-c2nccnc2Nc2cnc(C(F)(F)F)nc2)no1 [Example 23, 3-[3-[[2-(trifluoromethyl)pyrimidin-5-yl]amino]pyrazin-2-yl]-4H-1,2,4-oxadiazol-5-one]
8 | 37 | 12.2 | O=c1[nH]c(-c2nccnc2Nc2ccc(S(F)(F)(F)(F)F)cc2)no1 [Example 50, 3-[3-[4-(pentafluoro-λ6-sulfanyl)anilino]pyrazin-2-yl]-4H-1,2,4-oxadiazol-5-one]
9 | 188 | 12.1 | O=c1[nH]c(-c2nc3ccccc3nc2Nc2ccc(C(F)(F)F)cc2)no1 [Example 37, 3-[3-[4-(trifluoromethyl)anilino]quinoxalin-2-yl]-4H-1,2,4-oxadiazol-5-one]
10 | 35 | 10.5 | Cc1cnc(-c2noc(=O)[nH]2)c(Nc2ccc(C(F)(F)F)cc2)n1 [Example 31, 3-[5-methyl-3-[4-(trifluoromethyl)anilino]pyrazin-2-yl]-4H-1,2,4-oxadiazol-5-one]
11 | 1800 | 7.5 | O=c1[nH]c(-c2nccnc2Nc2ccc(OC(F)(F)F)cc2Cl)no1 [Example 8, 3-[3-[2-chloro-4-(trifluoromethoxy)anilino]pyrazin-2-yl]-4H-1,2,4-oxadiazol-5-one]
12 | 374 | 10.1 | O=c1[nH]c(-c2cc(C(F)(F)F)cnc2Nc2ccc(C(F)(F)F)cc2)no1 [Example 10, 3-[5-(trifluoromethyl)-2-[4-(trifluoromethyl)anilino]-3-pyridyl]-4H-1,2,4-oxadiazol-5-one]
13 | 147 | 2.9 | O=c1[nH]c(-c2c(OCCc3ccccn3)ccnc2Nc2ccc(C(F)(F)F)cc2)no1 [Example 61, 3-[4-[2-(2-pyridyl)ethoxy]-2-[4-(trifluoromethyl)anilino]-3-pyridyl]-4H-1,2,4-oxadiazol-5-one]
14 | 61 | 5.5 | COCCOc1ccnc(Nc2ccc(C(F)(F)F)cc2)c1-c1noc(=O)[nH]1 [Example 62, 3-[4-(2-methoxyethoxy)-2-[4-(trifluoromethyl)anilino]-3-pyridyl]-4H-1,2,4-oxadiazol-5-one]
15 | 357 | 0.9 | O=c1[nH]c(-c2c(OCCNCCO)ccnc2Nc2ccc(C(F)(F)F)cc2)no1 [Example 54, 3-[4-[2-(2-hydroxyethylamino)ethoxy]-2-[4-(trifluoromethyl)anilino]-3-pyridyl]-4H-1,2,4-oxadiazol-5-one]
16 | 95 | 10.3 | O=c1[nH]c(-c2c(F)ccnc2Nc2ccc(C(F)(F)F)cc2)no1 [Example 13, 3-[4-fluoro-2-[4-(trifluoromethyl)anilino]-3-pyridyl]-4H-1,2,4-oxadiazol-5-one]
17 | 552 | 11.1 | CC(C)c1ccc(Nc2nccnc2-c2noc(=O)[nH]2)cc1 [Example 16, 3-[3-(4-isopropylanilino)pyrazin-2-yl]-4H-1,2,4-oxadiazol-5-one]
18 | 2120 | 0.4 | Nc1cc(C(F)(F)F)ccc1Nc1nccnc1-c1noc(=O)[nH]1 [Example 34, 3-[3-[2-amino-4-(trifluoromethyl)anilino]pyrazin-2-yl]-4H-1,2,4-oxadiazol-5-one]
19 | 13700 | 3 | O=C(O)COc1ccnc(Nc2ccc(C(F)(F)F)cc2)c1-c1noc(=O)[nH]1 [Example 58, 2-[[3-(5-oxo-4H-1,2,4-oxadiazol-3-yl)-2-[4-(trifluoromethyl)anilino]-4-pyridyl]oxy]acetic acid]
20 | 767 | 4.3 | CC(=O)NCCOc1ccnc(Nc2ccc(C(F)(F)F)cc2)c1-c1noc(=O)[nH]1 [Example 56, N-[2-[[3-(5-oxo-4H-1,2,4-oxadiazol-3-yl)-2-[4-(trifluoromethyl)anilino]-4-pyridyl]oxy]ethyl]acetamide]
21 | 281 | 1 | NCCOc1ccnc(Nc2ccc(C(F)(F)F)cc2)c1-c1noc(=O)[nH]1 [Example 55, 3-[4-(2-aminoethoxy)-2-[4-(trifluoromethyl)anilino]-3-pyridyl]-4H-1,2,4-oxadiazol-5-one]
22 | 433 | 9.2 | Cc1cc(C)c(-c2noc(=O)[nH]2)c(Nc2ccc(C(F)(F)F)cc2)n1 [Example 26, 3-[4,6-dimethyl-2-[4-(trifluoromethyl)anilino]-3-pyridyl]-4H-1,2,4-oxadiazol-5-one]
23 | 10700 | 7.1 | O=c1[nH]c(-c2c(OC3CCNCC3)ccnc2Nc2ccc(C(F)(F)F)cc2)no1 [Example 67, 3-[4-(4-piperidyloxy)-2-[4-(trifluoromethyl)anilino]-3-pyridyl]-4H-1,2,4-oxadiazol-5-one]
24 | 930 | 6.6 | O=c1[nH]c(-c2nccnc2Nc2ccc(Cl)cc2)no1 [Example 43, 3-[3-(4-chloroanilino)pyrazin-2-yl]-4H-1,2,4-oxadiazol-5-one]
25 | 2820 | 9.3 | O=c1[nH]c(-c2nccnc2Nc2ccc(C3CC3)cc2)no1 [Example 39, 3-[3-(4-cyclopropylanilino)pyrazin-2-yl]-4H-1,2,4-oxadiazol-5-one]
26 | 236 | 10.6 | O=c1[nH]c(-c2nccnc2Nc2ccc(C(F)(F)F)c(Cl)c2)no1 [Example 20, 3-[3-[3-chloro-4-(trifluoromethyl)anilino]pyrazin-2-yl]-4H-1,2,4-oxadiazol-5-one]
27 | 708 | 8.7 | CCc1ccc(Nc2nccnc2-c2noc(=O)[nH]2)cc1 [Example 17, 3-[3-(4-ethylanilino)pyrazin-2-yl]-4H-1,2,4-oxadiazol-5-one]
28 | 117 | 9.6 | O=c1[nH]c(-c2nccnc2Nc2ccc(C(F)(F)F)cc2F)no1 [Example 25]
29 | 828 | 2.5 | O=c1[nH]c(-c2nccnc2Nc2ccc(-c3nccs3)cc2)no1 [Example 18, 3-[3-(4-thiazol-2-ylanilino)pyrazin-2-yl]-4H-1,2,4-oxadiazol-5-one]
30 | 268 | 4.2 | O=c1[nH]c(-c2c(OC3CCOCC3)ccnc2Nc2ccc(C(F)(F)F)cc2)no1 [Example 64, 3-[4-tetrahydropyran-4-yloxy-2-[4-(trifluoromethyl)anilino]-3-pyridyl]-4H-1,2,4-oxadiazol-5-one]

Row | Compound | IC50 [1] [nM] | ΔTm at 7 µM [2] [°C]
31 | COC(C)(C)CCOc1ccnc(Nc2ccc(C(F)(F)F)cc2)c1-c1noc(=O)[nH]1 [Example 66, 3-[4-(3-methoxy-3-methyl-butoxy)-2-[4-(trifluoromethyl)anilino]-3-pyridyl]-4H-1,2,4-oxadiazol-5-one] | 1470 | 0.4
